This note sets out measurements from patent US20260256789A1, “METHODS FOR TREATMENT OF CANCER” (Frontier Medicines Corporation, priority 2022, published 2026).

Bounds are passed on as bounds.

T1 sequence (P01116 1-169 isoform P01116-2 G12C/C51S/C80L/C118S): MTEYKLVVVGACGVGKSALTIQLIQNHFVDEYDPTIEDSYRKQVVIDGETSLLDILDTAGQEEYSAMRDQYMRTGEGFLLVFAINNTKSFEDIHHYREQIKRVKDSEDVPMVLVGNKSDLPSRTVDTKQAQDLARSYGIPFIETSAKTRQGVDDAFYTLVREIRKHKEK

The experiment addresses T1, KRAS G12C (GMPPNP-loaded) and cRAF Ras-binding domain (Homo sapiens, UniProt P01116, C118S/C51S/C80L/G12C).
T1 construct: truncated version comprising amino acids 1-169
Description: Inhibition of KRAS G12C and cRAF binding (AlphaScreen). Conditions: KRAS G12C preloaded with GTP analogue GMPPNP, 2 hours preincubation. The method, boiled down: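 Compounds (10-point, 1:3 from 50 μM; 2% DMSO) were incubated 2 h at room temperature with 0.5 nM GMPPNP-preloaded truncated Cys-light KRAS G12C, then 60-90 min with 0.75 nM GST-RBD of cRAF and AlphaScreen beads. Signal at 570 nm gave IC50 by 4-parameter regression, and a biotin-AviTag-GST counter assay excluded interference with the AlphaScreen readout.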
For `C=CC(=O)N1CC[C@@H](N(C)c2nc(OC[C@@]34CCCN3C[C@H](F)C4)nc3c(F)c(-c4cc(OC(F)F)ccc4Cl)ncc23)C1` [Example 186], the concentration for half-maximal inhibition (IC50) is not below 500 nM.
`C=CC(=O)N1CC[C@@H](N(C)c2nc(OC[C@@]34CCCN3C[C@H](F)C4)nc3c(F)c(-c4cccc(OC(F)F)c4C4CC4)ncc23)C1` [Example 187]: the half-maximal inhibitory concentration (IC50) was not below 500 nM.
In turn, `C=CC(=O)N1CC[C@@H](N(C)c2nc(OC[C@@]34CCCN3C[C@H](F)C4)nc3c(F)c(-c4cncc(F)c4C4CC4)ncc23)C1` [Example 188] had an IC50 not below 500 nM.
Next, `C=CC(=O)N1CC[C@@H](N(C)c2nc(OC[C@@]34CCCN3C[C@H](F)C4)nc3c(F)c(-c4cccc(OC)c4C4CC4)ncc23)C1` [Example 189]: not below 500 nM; `C=CC(=O)N1CC[C@@H](N(C)c2nc(OC[C@@]34CCCN3C[C@H](F)C4)nc3c(F)c(-c4cncc5ccc(F)c(F)c45)ncc23)C1` [Example 190]: not below 500 nM; `C=CC(=O)N1CC[C@@H](N(C)c2nc(OC[C@@]34CCCN3C[C@H](F)C4)nc3c(F)c(-c4cc(F)cc(Cl)c4C4CC4)ncc23)C1` [Example 191]: 100 to 500 nM.
Under `C=CC(=O)N1CC[C@@H](N(C)c2nc(OC[C@@]34CCCN3C[C@H](F)C4)nc3c(F)c(-c4cc(O)cc5nccnc45)ncc23)C1` [Example 192] stands 100 to 500 nM; under `CN(c1nc(OC[C@@]23CCCN2C[C@H](F)C3)nc2c(F)c(-c3cccc(Cl)c3C3CC3)ncc12)[C@@H]1CCN(C(=O)C#C[C@]2(C)CCCN2)C1` [Example 193], less than 10 nM; under `C=CC(=O)N1CC[C@@H](N(C)c2nc(OC[C@@]34CCCN3C[C@H](F)C4)nc3c(F)c(-c4c(Cl)c(C)cc5[nH]ncc45)ncc23)C1` [Example 194], 10 to 100 nM.
`C=CC(=O)N1CC[C@@H](N(C)c2nc(OC[C@@]34CCCN3C[C@H](F)C4)nc3c(F)c(-c4cccc(C(F)F)c4C4CC4)ncc23)C1` [Example 195] had a half-maximal inhibitory concentration (IC50) not below 500 nM.
`C=CC(=O)N1CC[C@@H](N(C)c2nc(OC[C@@]34CCCN3C[C@H](F)C4)nc3c(F)c(-c4c[nH]nc4C(F)(F)F)ncc23)C1` [Example 196]: the IC50 was not below 500 nM.
Next, `CN(C)C/C=C/C(=O)N1CC[C@@H](N(C)c2nc(OC[C@@]34CCCN3C[C@H](F)C4)nc3c(F)c(-c4cc(O)cc(Cl)c4C4CC4)ncc23)C1` [Example 197]: less than 10 nM.
In turn, `C=CC(=O)N1CC[C@@H](N(C)c2nc(OC[C@@]34CCCN3C[C@H](F)C4)nc3c(F)c(-c4cccc(C(F)(F)F)c4C4CC4)ncc23)C1` [Example 198] registered an IC50 not below 500 nM.
The compound `C=CC(=O)N1CC(CN(C)c2nc(OCC34CCCN3CCC4)nc3c2C[C@@H](C)[C@H](c2nc(N)cc(C)c2C(F)(F)F)C3)C1` [Example 199] displayed a 50% inhibitory concentration (IC50) not below 500 nM.
In turn, `Cc1cc(/C=C/C(=O)N2CC(CN(C)c3nc(OC[C@@]45CCCN4C[C@H](F)C5)nc4c(F)c(-c5cccc(Cl)c5C5CC5)ncc34)C2)nc(C)n1` [Example 200] registered an IC50 of 100 to 500 nM.
As for `Cc1cc(/C=C/C(=O)N2CC[C@@H](N(C)c3nc(OC[C@@]45CCCN4C[C@H](F)C5)nc4c(F)c(-c5cc(O)cc(Cl)c5C5CC5)ncc34)C2)nc(C)n1` [Example 201], the 50% inhibitory concentration (IC50) was less than 10 nM.
Under `C=CC(=O)N1CC[C@@H](N(C)c2nc(OC[C@@]34CCCN3C[C@H](F)C4)nc3c(F)c(-c4ccc(F)c(F)c4C4CC4)ncc23)C1` [Example 202] stands not below 500 nM.
In turn, `Cc1cc(N)nc(N2CCc3c(nc(OC[C@@]45CCCN4C[C@H](F)C5)nc3N(C)[C@@H]3CCN(C#N)C3)C2)c1C(F)(F)F` [Example 203] registered an IC50 not below 500 nM.
As for `Cc1cc(/C=C/C(=O)N2CC(CN(C)c3nc(OC[C@@]45CCCN4C[C@H](F)C5)nc4c(F)c(-c5cc(O)cc(Cl)c5C5CC5)ncc34)C2)nc(C)n1` [Example 204], the 50% inhibitory concentration (IC50) was in the range of 100 to 500 nM.
`C=CC(=O)N1CC[C@H](O)[C@@H](N(C)c2nc(OC[C@@]34CCCN3C[C@H](F)C4)nc3c(F)c(-c4cccc(Cl)c4C(F)(F)F)ncc23)C1` [Example 205] showed an IC50 not below 500 nM.

The term IC50 denotes the point on the concentration scale where inhibition reaches its midpoint. Low values mean greater potency in that assay, high ones weaker potency in that assay.
